Reference: ChEMBL document CHEMBL1201862, “PubChem BioAssay data set” (2004)
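Exposure lasted 48 hours, with cells grown in 96-well plates and compounds tested at five concentrations. GI50 = concentration required for 50% inhibition of growth.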 Activity calls are given as the source filed them. Rule as the data show it: active = GI50 up to about 1.1 µM and inactive = higher.

Columns and labels:
Assay in all cases: NCI tumour cell line growth inhibition, 48 h
786-0 = tested on: 786-0
A498 = tested on: A498
A549 = tested on: A549
ACHN = tested on: ACHN
CAKI-1 = tested on: CAKI-1
COLO 205 = tested on: COLO 205
DLD-1 = tested on: DLD-1
DMS-273 = tested on: DMS-273
EKVX = tested on: EKVX
HCC 2998 = tested on: HCC 2998
HCT-116 = tested on: HCT-116
HCT-15 = tested on: HCT-15
HL-60 = tested on: HL-60
HOP-18 = tested on: HOP-18
HOP-62 = tested on: HOP-62
HT-29 = tested on: HT-29
IGROV-1 = tested on: IGROV-1
K562 = tested on: K562
KM-20L2 = tested on: KM-20L2
KM12 = tested on: KM12
LOX IMVI = tested on: LOX IMVI
LXFL 529 = tested on: LXFL 529
M14 = tested on: M14
M19-MEL = tested on: M19-MEL
MOLT-4 = tested on: MOLT-4
NCI-H226 = tested on: NCI-H226
NCI-H23 = tested on: NCI-H23
NCI-H460 = tested on: NCI-H460
NCI-H522 = tested on: NCI-H522
OVCAR-3 = tested on: OVCAR-3
OVCAR-4 = tested on: OVCAR-4
OVCAR-5 = tested on: OVCAR-5
OVCAR-8 = tested on: OVCAR-8
RPMI-8226 = tested on: RPMI-8226
RXF 631 = tested on: RXF 631
SF-268 = tested on: SF-268
SF-295 = tested on: SF-295
SF-539 = tested on: SF-539
SK-MEL-28 = tested on: SK-MEL-28
SK-MEL-2 = tested on: SK-MEL-2
SK-MEL-5 = tested on: SK-MEL-5
SK-OV-3 = tested on: SK-OV-3
SN12C = tested on: SN12C
SNB-19 = tested on: SNB-19
SNB-75 = tested on: SNB-75
SNB-78 = tested on: SNB-78
SR = tested on: SR
SW-620 = tested on: SW-620
TK-10 = tested on: TK-10
U-251 = tested on: U-251
UACC-257 = tested on: UACC-257
UACC-62 = tested on: UACC-62
UO-31 = tested on: UO-31
XF498 = tested on: XF498
CCRF-CEM = tested on: CCRF-CEM
HOP-92 = tested on: HOP-92
Malme-3M = tested on: Malme-3M
RXF 393 = tested on: RXF 393

## O=C(O)/C(=C/c1ccccc1[N+](=O)[O-])c1cccs1
786-0
  GI50: > 100 µM (inactive)
A498
  GI50: > 100 µM (inactive)
A549
  GI50: > 100 µM (inactive)
ACHN
  GI50: > 100 µM (inactive)
CAKI-1
  GI50: > 100 µM (inactive)
COLO 205
  GI50: > 100 µM (inactive)
DLD-1
  GI50: > 100 µM (inactive)
DMS-273
  GI50: > 100 µM (inactive)
EKVX
  GI50: > 100 µM (inactive)
HCC 2998
  GI50: > 100 µM (inactive)
HCT-116
  GI50: > 100 µM (inactive)
HCT-15
  GI50: > 100 µM
HL-60
  GI50: > 100 µM (inactive)
HOP-18
  GI50: > 100 µM (inactive)
HOP-62
  GI50: > 100 µM (inactive)
HT-29
  GI50: > 100 µM (inactive)
IGROV-1
  GI50: > 100 µM (inactive)
K562
  GI50: > 100 µM (inactive)
KM-20L2
  GI50: > 100 µM (inactive)
KM12
  GI50: > 100 µM (inactive)
LOX IMVI
  GI50: > 100 µM (inactive)
LXFL 529
  GI50: > 100 µM (inactive)
M14
  GI50: > 100 µM (inactive)
M19-MEL
  GI50: > 100 µM (inactive)
MOLT-4
  GI50: > 100 µM (inactive)
NCI-H226
  GI50: > 100 µM (inactive)
NCI-H23
  GI50: > 100 µM (inactive)
NCI-H460
  GI50: > 100 µM (inactive)
NCI-H522
  GI50: > 100 µM (inactive)
OVCAR-3
  GI50: > 100 µM (inactive)
OVCAR-4
  GI50: > 100 µM (inactive)
OVCAR-5
  GI50: > 100 µM (inactive)
OVCAR-8
  GI50: > 100 µM (inactive)
RPMI-8226
  GI50: > 100 µM (inactive)
RXF 631
  GI50: > 100 µM (inactive)
SF-268
  GI50: > 100 µM (inactive)
SF-295
  GI50: > 100 µM (inactive)
SF-539
  GI50: > 100 µM (inactive)
SK-MEL-28
  GI50: > 100 µM (inactive)
SK-MEL-2
  GI50: > 100 µM (inactive)
SK-MEL-5
  GI50: > 100 µM (inactive)
SK-OV-3
  GI50: > 100 µM (inactive)
SN12C
  GI50: > 100 µM (inactive)
SNB-19
  GI50: > 100 µM (inactive)
SNB-75
  GI50: > 100 µM (inactive)
SNB-78
  GI50: > 100 µM (inactive)
SR
  GI50: > 100 µM (inactive)
SW-620
  GI50: > 100 µM (inactive)
TK-10
  GI50: > 100 µM (inactive)
U-251
  GI50: > 100 µM (inactive)
UACC-257
  GI50: > 100 µM (inactive)
UACC-62
  GI50: > 100 µM (inactive)
UO-31
  GI50: > 100 µM (inactive)
XF498
  GI50: > 100 µM (inactive)

## O=C(O)[C@@H](NS(=O)(=O)c1ccc([N+](=O)[O-])cc1)c1ccccc1
786-0
  GI50: > 100 µM (inactive)
A498
  GI50: > 100 µM (inactive)
A549
  GI50: > 100 µM (inactive)
ACHN
  GI50: > 100 µM (inactive)
CAKI-1
  GI50: > 100 µM (inactive)
CCRF-CEM
  GI50: > 100 µM (inactive)
COLO 205
  GI50: > 100 µM (inactive)
DLD-1
  GI50: > 100 µM (inactive)
DMS-273
  GI50: > 100 µM (inactive)
EKVX
  GI50: > 100 µM (inactive)
HCC 2998
  GI50: > 100 µM (inactive)
HCT-15
  GI50: > 100 µM
HL-60
  GI50: > 100 µM (inactive)
HOP-18
  GI50: > 100 µM (inactive)
HOP-92
  GI50: > 100 µM (inactive)
HT-29
  GI50: > 100 µM (inactive)
IGROV-1
  GI50: > 100 µM (inactive)
K562
  GI50: > 100 µM (inactive)
KM-20L2
  GI50: > 100 µM (inactive)
KM12
  GI50: > 100 µM (inactive)
LOX IMVI
  GI50: > 100 µM (inactive)
LXFL 529
  GI50: > 100 µM (inactive)
M14
  GI50: > 100 µM (inactive)
M19-MEL
  GI50: > 100 µM (inactive)
MOLT-4
  GI50: > 100 µM (inactive)
Malme-3M
  GI50: > 100 µM (inactive)
NCI-H226
  GI50: > 100 µM (inactive)
NCI-H23
  GI50: > 100 µM (inactive)
NCI-H460
  GI50: > 100 µM (inactive)
NCI-H522
  GI50: 73.6 µM (inactive)
OVCAR-3
  GI50: > 100 µM (inactive)
OVCAR-4
  GI50: > 100 µM (inactive)
OVCAR-5
  GI50: > 100 µM (inactive)
OVCAR-8
  GI50: > 100 µM (inactive)
RPMI-8226
  GI50: > 100 µM (inactive)
RXF 393
  GI50: > 100 µM (inactive)
RXF 631
  GI50: > 100 µM (inactive)
SF-268
  GI50: > 100 µM (inactive)
SF-295
  GI50: > 100 µM (inactive)
SF-539
  GI50: > 100 µM (inactive)
SK-MEL-28
  GI50: > 100 µM (inactive)
SK-MEL-2
  GI50: > 100 µM (inactive)
SK-MEL-5
  GI50: > 100 µM (inactive)
SK-OV-3
  GI50: > 100 µM (inactive)
SN12C
  GI50: > 100 µM (inactive)
SNB-19
  GI50: > 100 µM (inactive)
SNB-75
  GI50: > 100 µM (inactive)
SW-620
  GI50: > 100 µM (inactive)
TK-10
  GI50: > 100 µM (inactive)
U-251
  GI50: > 100 µM (inactive)
UACC-257
  GI50: > 100 µM (inactive)
UACC-62
  GI50: > 100 µM (inactive)
UO-31
  GI50: > 100 µM (inactive)
XF498
  GI50: > 100 µM (inactive)
